From the supplement of paper PMC10307832

How the values were obtained:
Test in all cases: relative viability (nuclei count vs DMSO), 5 days (fraction); higher = more cells survive
Afatinib + Trametinib = compound: CN(C)C/C=C/C(=O)Nc1cc2c(Nc3ccc(F)c(Cl)c3)ncnc2cc1O[C@H]1CCOC1 [Afatinib] + CC(=O)Nc1cccc(-n2c(=O)n(C3CC3)c(=O)c3c(Nc4ccc(I)cc4F)n(C)c(=O)c(C)c32)c1 [Trametinib] (partner 0.02 µM)
Procedure, shortened: (§1)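 Relative viability equals treated-well nuclei counts divided by vehicle-well nuclei counts. Counts came from 4× images of lung cancer cell lines grown in 1536-well plates for 5 days after pin-tool dosing on the day after seeding. Dosing used one drug alone or a fixed anchor-drug dose plus five library-drug doses (not always all listed) in √10 steps, and values are medians of duplicate plates.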

Afatinib + OSI-027 = compound: CN(C)C/C=C/C(=O)Nc1cc2c(Nc3ccc(F)c(Cl)c3)ncnc2cc1O[C@H]1CCOC1 [Afatinib] + COc1cccc2cc(-c3nc([C@H]4CC[C@H](C(=O)O)CC4)n4ncnc(N)c34)[nH]c12 [OSI-027] (partner 0.5 µM)
Procedure, shortened: as §1

Afatinib + Lapatinib = compound: CN(C)C/C=C/C(=O)Nc1cc2c(Nc3ccc(F)c(Cl)c3)ncnc2cc1O[C@H]1CCOC1 [Afatinib] + CS(=O)(=O)CCNCc1ccc(-c2ccc3ncnc(Nc4ccc(OCc5cccc(F)c5)c(Cl)c4)c3c2)o1 [Lapatinib] (partner 2 µM)
Procedure, shortened: as §1

Afatinib + Linsitinib = compound: CN(C)C/C=C/C(=O)Nc1cc2c(Nc3ccc(F)c(Cl)c3)ncnc2cc1O[C@H]1CCOC1 [Afatinib] + C[C@]1(O)C[C@@H](c2nc(-c3ccc4ccc(-c5ccccc5)nc4c3)c3c(N)nccn32)C1 [Linsitinib] (partner 1 µM)
Procedure, shortened: as §1

| Cell Line | relative viability (Afatinib + Trametinib; first compound 0.005 µM) | relative viability (Afatinib + Trametinib; first compound 0.01581 µM) | relative viability (Afatinib + Trametinib; first compound 0.05 µM) | relative viability (Afatinib + Trametinib; first compound 0.1581 µM) | relative viability (Afatinib + Trametinib; first compound 0.5 µM) | relative viability (Afatinib + OSI-027; first compound 0.005 µM) | relative viability (Afatinib + OSI-027; first compound 0.01581 µM) | relative viability (Afatinib + OSI-027; first compound 0.05 µM) | relative viability (Afatinib + OSI-027; first compound 0.1581 µM) | relative viability (Afatinib + OSI-027; first compound 0.5 µM) | relative viability (Afatinib + Lapatinib; first compound 0.005 µM) | relative viability (Afatinib + Lapatinib; first compound 0.01581 µM) | relative viability (Afatinib + Lapatinib; first compound 0.05 µM) | relative viability (Afatinib + Lapatinib; first compound 0.1581 µM) | relative viability (Afatinib + Lapatinib; first compound 0.5 µM) | relative viability (Afatinib + Linsitinib; first compound 0.005 µM) | relative viability (Afatinib + Linsitinib; first compound 0.01581 µM) | relative viability (Afatinib + Linsitinib; first compound 0.05 µM) | relative viability (Afatinib + Linsitinib; first compound 0.1581 µM) | relative viability (Afatinib + Linsitinib; first compound 0.5 µM) |
| --- | --- | --- | --- | --- | --- | --- | --- | --- | --- | --- | --- | --- | --- | --- | --- | --- | --- | --- | --- | --- |
| LXF-289 | 0.702 | 0.716 | 0.616 | 0.613 | 0.647 | 0.82 | 0.606 | 0.62 | 0.602 | 0.67 | 0.937 | 0.91 | 0.95 | 0.903 | 0.917 | 1 | 0.927 | 0.947 | 0.851 | 0.947 |
| NCI-H23 | 0.358 | 0.323 | 0.359 | 0.331 | 0.345 | 0.585 | 0.611 | 0.54 | 0.599 | 0.47 | 1.34 | 1.23 | 1.08 | 1.04 | 1.01 | 0.601 | 0.628 | 0.584 | 0.523 | 0.486 |
| NCI-H322M | 0.492 | 0.463 | 0.458 | 0.43 | 0.442 | 0.511 | 0.422 | 0.463 | 0.356 | 0.397 | 0.554 | 0.547 | 0.499 | 0.57 | 0.465 | 0.847 | 0.616 | 0.468 | 0.419 | 0.588 |
| NCI-H358 | 0.119 | 0.115 | 0.13 | 0.102 | 0.127 | 0.484 | 0.316 | 0.239 | 0.19 | 0.189 | 0.502 | 0.356 | 0.408 | 0.436 | 0.432 | 0.466 | 0.329 | 0.366 | 0.318 | 0.264 |
| NCI-H460 | 0.161 | 0.139 | 0.187 | 0.133 | 0.136 | 0.716 | 0.629 | 0.676 | 0.705 | 0.666 | 0.973 | 0.932 | 1.04 | 1.02 | 0.842 | 0.74 | 0.713 | 0.905 | 0.866 | 0.796 |
| NCI-H520 | 0.892 | 0.633 | 0.725 | 0.734 | 0.545 | 0.357 | 0.198 | 0.201 | 0.261 | 0.234 | 0.857 | 0.78 | 0.918 | 0.903 | 0.687 | 0.983 | 0.998 | 0.992 | 0.931 | 0.802 |
| NCI-H596 | 0.783 | 0.725 | 0.834 | 0.782 | 0.797 | 0.728 | 0.701 | 0.746 | 0.613 | 0.651 | 1.09 | 1.08 | 1.09 | 1.02 | 1.02 | 1.06 | 1.16 | 1.1 | 1.02 | 0.888 |
| NCI-H647 | 0.554 | 0.465 | 0.451 | 0.468 | 0.438 | 0.582 | 0.629 | 0.487 | 0.705 | 0.554 | 1.09 | 0.948 | 1.16 | 1.24 | 1.2 | 1.1 | 1.22 | 1.24 | 1.27 | 1.18 |
| NCI-H650 | 0.947 | 0.983 | 0.991 | 0.969 | 1.01 | 0.557 | 0.475 | 0.566 | 0.516 | 0.503 | 1.01 | 0.844 | 1.19 | 1.21 | 0.684 | 0.872 | 0.706 | 1.03 | 0.999 | 0.697 |
| NCI-H661 | 0.52 | 0.415 | 0.457 | 0.367 | 0.369 | 0.558 | 0.458 | 0.528 | 0.386 | 0.367 | 0.682 | 0.469 | 0.573 | 0.454 | 0.443 | 0.669 | 0.531 | 0.516 | 0.375 | 0.294 |
| NCI-H727 | 0.391 | 0.359 | 0.393 | 0.299 | 0.34 | 0.699 | 0.447 | 0.511 | 0.49 | 0.56 | 0.892 | 0.861 | 0.894 | 0.639 | 0.948 | 0.282 | 0.307 | 0.284 | 0.267 | 0.28 |
| NCI-H838 | 0.585 | 0.434 | 0.523 | 0.525 | 0.685 | 0.445 | 0.353 | 0.371 | 0.365 | 0.363 | 0.986 | 0.953 | 1.07 | 1.08 | 1.06 | 1.04 | 0.949 | 1.07 | 0.952 | 1.06 |
| NCI-H1355 | 0.366 | 0.428 | 0.381 | 0.306 | 0.341 | 0.388 | 0.341 | 0.348 | 0.361 | 0.276 | 1.03 | 1.08 | 1 | 0.945 | 1.03 | 0.744 | 0.828 | 0.728 | 0.586 | 0.662 |
| NCI-H1395 | 1.13 | 0.832 | 1.09 | 0.911 | 1.06 | 0.587 | 0.561 | 0.688 | 0.681 | 0.592 | 1.13 | 0.965 | 1.22 | 1.02 | 0.897 | 1.43 | 1.13 | 1.22 | 1.19 | 1.13 |
| NCI-H1437 | 0.434 | 0.413 | 0.472 | 0.414 | 0.434 | 0.988 | 0.848 | 0.894 | 0.873 | 0.9 | 0.891 | 0.79 | 0.758 | 0.778 | 0.779 | 1.18 | 1.1 | 0.941 | 0.98 | 0.967 |
| NCI-H1651 | 0.856 | 0.862 | 0.838 | 0.808 | 0.785 | 0.688 | 0.618 | 0.61 | 0.67 | 0.627 | 0.925 | 0.841 | 0.763 | 0.834 | 0.803 | 1.12 | 0.983 | 0.847 | 0.906 | 0.815 |
